Measured values taken from patent US9102636B2, “Analgesic compounds, compositions, and uses thereof” (Galleon Pharmaceuticals, Inc., priority 2010, dated 2015).
Values joined by “and” are separate entries in the source; they are usually repeats but may differ in a detail not shown here. Identical values can stand only once. “Also recorded” adds a separate entry of the source.

What was measured:
[1] = L-012 assay: inhibition of SIN-1 generated peroxynitrite induced luminescence/fluorescence of L-012; type: biochemical; settings: 15 minute time point; average of three plates
Procedure: Luminol like compound “L-012” is a chemilumescent probe that is activated by the presence of a ROS and/or RNS such as peroxynitrite. In this assay L-012 was oxidized by the addition of 3-Morpholino-sydnonimine (“SIN-1”), a known peroxynitrite generator. The emitted fluorescence was directly proportional to the concentration of SIN-1. The compounds of the invention were then assessed for their ability to scavenge peroxynitrite by blocking the increase of peroxynitrite induced fluorescence. Concentrations of compound producing 50% inhibition of the fluorescence signal (IC50 values) were calculated by testing the compounds of the invention at various concentrations and averaging the IC50 of three plates.
The following solutions were added to white polystyrene, non-sterile 96-well plate (Costar #3912): 196 μL of 50 μM L-012; 2 μL of the test compound; and 24 μL of 500 mM SIN-1. Fresh stock of 50 μM L-012 in PBS pH 7.4 was made for each 96 well plate that was analyzed. The plates were read in a FlexStation3 (Molecular Devices) using the luminescent mode at 37° C. for 30 min, with a measurement every 30 seconds and an integration time of 100 msec.
Luminescence signal was recorded by the FlexStation3 kinetically at 37° C. for 30 minutes, with a measurement every 30 seconds and an integration time of 100 msec. The data in rows A and H were dropped from each plate to exclude the possibility of an ‘edge effect’. Thus, each test compound had 3 replicates per plate.

[2] = tested on: FCA induced tactile allodynia; experiment: FCA induced tactile allodynia (electronic von Frey); type: in vivo, rat
Procedure: (§1) Compound 2 was evaluated in the rat Freund's complete adjuvant (FCA) model of inflammatory pain. The rat Freund's complete adjuvant (FCA) intraplantar model of inflammatory pain produces behaviors similar to those observed in patients and has been widely used to assess novel pharmacological treatments (Lam et al., 2008, J Ethnopharmacol. 120:44-50). The positive control was celecoxib (TRC, Montreal), and the negative control was vehicle (0.5% methyl cellulose, in phosphate buffered saline). […] The Hargreaves apparatus was obtained from Ugo Basile, Italy. The Freund's complete adjuvant was obtained from Sigma, St. Louis, and the electronic von frey was obtained from Stoelting, Ill. For this assay, paw withdrawal latency to a thermal stimulus was assessed using a radiant heat source (Ugo Basile, Italy) aimed at the plantar surface of the left hind paw (Hargreaves test; […] Paw withdrawal thresholds to a non-noxious tactile stimulus was assessed using an electronic von Frey apparatus that presented an increasing mechanical force to the plantar surface of the hind paw. Paw volume was measured by displacement of water and assuming a tissue density equal to that of water. […] Celecoxib (30 mg/kg p.o.) served as the positive control. […] After induction of anesthesia, the injection site was prepared in a sterile manner and 100 μl of a 50% suspension of FCA injected. After injection, animals were weighed and allowed to recover before being returned to their home cages. Statistical significance was determined on untransformed data using a two-way analysis of variance (Graphpad Prism, NC). Significant main effects were analyzed further by subsequent Bonferronni post-hoc test. The level of significance was set at p<0.05. Data are shown as mean±S.E.M. (with an asterisk to denote significance as compared to vehicle treated controls).

FCA induced edema = FCA induced edema (paw volume); type: in vivo, rat
Procedure: as §1

[3] = tested on: spinal nerve ligation induced tactile allodynia; experiment: Spinal nerve ligation (SNL, Chung model) induced tactile allodynia (von Frey filaments); type: in vivo, rat; settings: for Paw withdrawal threshold: FIG. 24, fasted; for Paw withdrawal threshold / Paw threshold: individual animals; for Paw threshold: FIG. 25, gabapentin (positive control, 100 mg/kg i.p.)
ataxia (rotarod) = experiment: Accelerating rotarod assay of ataxia (latency to fall); type: in vivo, rat; settings: for Latency to fall: Haloperidol 3 mg/kg p.o., maximum 300 seconds, individual animals
Procedure: Compound 2 was evaluated in a rat accelerating rotarod model of ataxia. Ataxia is a common clinical problem with CNS-active compounds and can often confound interpretation of efficacy in preclinical pain models. The rotarod assay of ataxia has been widely used to assess the side-effect liability of novel pharmacological treatments (Jones & Roberts, 1968, J. Pharm. […] The positive control was haloperidol (Sigma, St. […] Male Sprague-Dawley Rats (Harlan, Ill.) were 250-300 g at time of dosing. Rotarod was obtained from IITC, CA. To examine the potential effects of Compound 2 on motor performance, rats were tested on an accelerating rotarod (IITC, Ca). […] Rats received two timed training trials (averaged to give the reported baseline) on the first day, then 24 hr later rats were administered Compound 2 (30, 100 and 300 mg/kg, p.o.), haloperidol (3 mg/kg, p.o.), the positive control, or vehicle. […] Statistical significance was determined on untransformed data using a two-way analysis of variance (Graphpad Prism, NC). Significant main effects were analyzed further by subsequent Bonferronni post-hoc test. The level of significance was set at p<0.05. Data are shown as mean±S.E.M. (with an asterisk to denote significance as compared to vehicle treated controls).

Work on `CC1(C)SC(Nc2ccccc2O)=N[C@H]1C(=O)O` [Compound 1, (S)-2-(2-hydroxyphenylamino)-thiazoline-5,5-dimethyl-4-carboxylic acid] yielded an IC50 [1] of 270 nM.
Work on `COC(=O)[C@@H]1N=C(Nc2cc(Cl)ccc2O)SC1(C)C` [Compound 20, (S)-2-(2-Hydroxy-5-chlorophenylamino)-thiazoline-5,5-dimethyl-4-carboxylic acid methyl ester] yielded an IC50 [1] of 550 nM.
`CC1(C)SC(Nc2cc(Cl)ccc2O)=N[C@H]1C(=O)O` [Compound 21, (S)-2-(2-Hydroxy-5-chlorophenylamino)-thiazoline-5,5-dimethyl-4-carboxylic acid] gave an IC50 [1] of 260 nM.
Molecule `Cc1ccc(O)c(NC2=N[C@@H](C(=O)O)C(C)(C)S2)c1` [Compound 24, (S)-2-(2-Hydroxy-5-methylphenylamino)-thiazoline-5,5-dimethyl-4-carboxylic acid] has an IC50 [1] of 540 nM.
Molecule `COc1ccc(NC2=N[C@@H](C(=O)O)C(C)(C)S2)c(O)c1` [Compound 26, (S)-2-(2-Hydroxy-4-methoxyphenylamino)-thiazoline-5,5-dimethyl-4-carboxylic acid] has an IC50 [1] of 140 nM.
`COC(=O)[C@@H]1N=C(Nc2ccc(OC)cc2O)SC1(C)C` [Compound 27, (S)-2-(2-Hydroxy-4-methoxyphenylamino)-thiazoline-5,5-dimethyl-4-carboxylic acid methyl ester] showed an IC50 [1] of 300 nM.
With `Cc1ccc(-c2cc(C(F)(F)F)nn2-c2ccc(S(N)(=O)=O)cc2)cc1` [celecoxib, reference compound] the “Paw withdrawl threshold” value ([2]; 60 (min post-dose), celecoxib 30 mg/kg p.o. 24 hours post-FCA) was 29.9 g and 32.4 g and 19.8 g and 23.2 g and 30.9 g, the “Paw withdrawl threshold” value ([2]; baseline (pre-FCA), celecoxib 30 mg/kg group, individual rats) was 31.8 g (2×) and 39.4 g and 25.93 g and 36.6 g and 37.73 g and the “Paw volume” value (FCA induced edema; 24 hrs post, Celecoxib (30 mg/kg p.o.), FIG. 20A) was 2.8 mL and 3.1 mL and 2.7 mL and 3 mL and 2.2 mL. The “Paw volume” value (FCA induced edema; 48 hrs post, Celecoxib (30 mg/kg p.o.), FIG. 20A) was 2.7 mL and 2.8 mL and 2.2 mL, the “Paw volume” value (FCA induced edema; FCA/celecoxib, 30 mg/kg p.o., 1 hr (D2), individual animals, 30 mg/kg) was 2.3 mL (2×) and 2.6 mL and 2.4 mL (2×) and 2.7 mL (2×) and 2.5 mL and the “Paw volume” value (FCA induced edema; FCA/celecoxib, 30 mg/kg p.o., 1 hr, individual animals, 30 mg/kg) was 2.7 mL (3×) and 2.9 mL and 2.6 mL and 3.1 mL and 3 mL (2×). For the same molecule, the “Paw volume” value (FCA induced edema; FCA/celecoxib, 30 mg/kg p.o., 3 hrs (D2), individual animals, 30 mg/kg) was 2.4 mL and 2.5 mL (2×) and 2.3 mL (2×) and 2.7 mL and 2.6 mL and 2.8 mL, the “Paw volume” value (FCA induced edema; FCA/celecoxib, 30 mg/kg p.o., 3 hrs, individual animals, 30 mg/kg) was 2.7 mL (3×) and 2.9 mL (2×) and 2.8 mL and 3.1 mL and 2.6 mL and the “Paw volume” value (FCA induced edema; FCA/celecoxib, 30 mg/kg p.o., Pre-Drug (D2), individual animals, 30 mg/kg) was 2.4 mL and 2.6 mL (2×) and 2.3 mL (2×) and 2.5 mL and 2.7 mL and 2.8 mL. The “Paw volume” value (FCA induced edema; FCA/celecoxib, 30 mg/kg p.o., Pre-Drug, individual animals, 30 mg/kg) was 2.8 mL (3×) and 3.1 mL (2×) and 2.9 mL and 3 mL and 3.2 mL, the “Paw volume” value (FCA induced edema; FCA/celecoxib, 30 mg/kg p.o., Pre-FCA (baseline), individual animals, 30 mg/kg) was 1.7 mL (6×) and 1.8 mL and 1.9 mL and the “Paw volume” value (FCA induced edema; Pre-FCA, Celecoxib (30 mg/kg p.o.) group, individual rats, FIG. 20A) was 1.8 mL and 1.9 mL (2×) and 1.7 mL (2×) and 1.5 mL.
With `NCC1(CC(=O)O)CCCCC1` [gabapentin, reference compound] the “Paw withdrawal threshold” value ([3]; gabapentin 100 mg/kg i.p., 3 hrs (D1)) was 15 g (4×) and 5.18 g and 3.67 g and 6.58 g and 5.56 g, the “Paw withdrawal threshold” value ([3]; gabapentin 100 mg/kg i.p., 3 hrs (D3)) was 15 g (3×) and 3.33 g and 11.69 g and 8.61 g and 6.58 g and 9.86 g and the “Paw withdrawal threshold” value ([3]; gabapentin 100 mg/kg i.p., 5 hrs (D1)) was 10.31 g and 5.56 g and 6.58 g (2×) and 1.99 g and 6.66 g and 7.94 g and 6.4 g. For the same molecule, the “Paw withdrawal threshold” value ([3]; gabapentin 100 mg/kg i.p., 5 hrs (D3)) was 15 g (2×) and 4.4 g and 4.72 g and 2.37 g and 6.58 g and 7.31 g and 6.66 g, the “Paw withdrawal threshold” value ([3]; gabapentin 100 mg/kg i.p., Pre-Drug (D1)) was 6.64 g and 1.65 g and 1.33 g and 1.56 g and 2.81 g (2×) and 4.23 g and 5.04 g and the “Paw withdrawal threshold” value ([3]; gabapentin 100 mg/kg i.p., Pre-Drug (D3)) was 6.64 g and 1.56 g and 1.4 g and 1.65 g and 5.57 g and 3.55 g and 3.58 g and 2.81 g. For the same molecule, the “Paw withdrawal threshold” value ([3]; gabapentin 100 mg/kg i.p., Pre-Sx) was 15 g, the “Paw threshold” value ([3]; 1 wk, 100 mg/kg) was 1.56 g (2×) and 6.58 g (2×) and 3.73 g and 2.2 g and 4.25 g and 1.4 g and the “Paw threshold” value ([3]; 2 wks, 100 mg/kg) was 0.99 g and 1.31 g and 3.13 g and 1.4 g (2×) and 2.81 g (3×). The “Paw threshold” value ([3]; Pre-Sx) was 15 g, the “reversal of SNL tactile allodynia, positive control” value ([3]; rat, gabapentin 100 mg/kg i.p., 3 and 5 hours after each administration) was “consistently produced a statistically significant reversal of allodynia; also recorded: statistically significant reversal of hyperalgesia” and the “development of SNL tactile allodynia, positive control dosed only on day of surgery” value ([3]; rat, gabapentin, FIG. 25) was “failed to alter the course of development of allodynia”.
In the case of `O=C(CCCN1CCC(O)(c2ccc(Cl)cc2)CC1)c1ccc(F)cc1` [haloperidol, reference compound], the “Latency to fall” value (ataxia (rotarod); Baseline) is reported as 60 s and 38 s and 42.5 s and 59 s and 68 s and 48 s and 86 s and 62 s and 71 s and 80 s and 57 s, the “Latency to fall” value (ataxia (rotarod); Post-Drug (1 hr)) is reported as 9 sec and 10 sec (2×) and 7 sec and 2 sec (2×) and 5 sec (2×) and 6 sec and 30 sec and 15 sec and the “latency to fall, accelerating rotarod, positive control” value (ataxia (rotarod); rat, haloperidol 3 mg/kg p.o., 1 h post-administration) is reported as “significant motor deficits; also recorded: substantial reduction in latency”.
